The record followed here is US8404679B2, “Pyrrolidine derivatives as NK2 receptor antagonists” (Hoffmann-La Roche Inc., priority 2008, dated 2013).

The assay has as its target T1, human NK2 receptor (Homo sapiens, UniProt P21452).
T1 construct: purchased Perkin Elmer biosignal Inc. 6110510
T1 sequence (P21452 1-398): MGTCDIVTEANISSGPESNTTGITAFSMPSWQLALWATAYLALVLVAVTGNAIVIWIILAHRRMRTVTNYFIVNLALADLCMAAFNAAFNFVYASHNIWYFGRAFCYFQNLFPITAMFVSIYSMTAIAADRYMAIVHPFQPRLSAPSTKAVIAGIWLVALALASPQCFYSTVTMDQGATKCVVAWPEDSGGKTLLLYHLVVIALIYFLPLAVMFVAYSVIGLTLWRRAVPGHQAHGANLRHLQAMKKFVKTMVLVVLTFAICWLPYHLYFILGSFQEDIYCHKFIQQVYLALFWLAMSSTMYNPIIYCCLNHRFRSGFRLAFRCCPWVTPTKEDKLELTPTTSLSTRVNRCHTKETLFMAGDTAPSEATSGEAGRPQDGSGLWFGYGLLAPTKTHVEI
Briefly: [3H]SR48968 competition binding assay. To be noted: [3H]SR48968 displacement, membranes of CHO cells stably expressing recombinant human NK2 receptor; Ki from IC50 by Cheng-Prussoff. A digest of the protocol:
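Membranes from CHO cells stably expressing recombinant human NK2 were incubated 75 min at RT with [3H]SR48968 at its KD and 10 compound concentrations (0.0003–10 μM) in Tris-HCl pH 7.4, MnCl2, chymostatin, BSA. Filter-bound radioactivity was counted; Hill-fitted IC50 converted to Ki via Cheng-Prusoff.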

What is called Ki is the equilibrium dissociation constant of an inhibitor or competing ligand from its target. On to `COc1ccc(C(=O)N(C)[C@@H]2CN(C(=O)c3ccc(C#N)cc3)C[C@H]2c2ccc(Cl)c(Cl)c2)cc1C(C)(C)C` (racemic) [Example 74, rac-3-tert-Butyl-N-[(3S,4R)-1-(4-cyano-benzoyl)-4-(3,4-dichloro-phenyl)-pyrrolidin-3-yl]-4-methoxy-N-methyl-benzamide], for which the inhibitory constant (Ki) worked out at 1.3 nM.

For `CN(C(=O)c1ccc(OCC2CC2)cc1)[C@@H]1CN(C(=O)c2ccc(C#N)cc2)C[C@H]1c1ccc(Cl)c(Cl)c1` (racemic) [Example 75, rac-N-[(3S,4R)-1-(4-Cyano-benzoyl)-4-(3,4-dichloro-phenyl)-pyrrolidin-3-yl]-4-cyclopropylmethoxy-N-methyl-benzamide], the Ki stood at 23 nM.

`COc1ncc(C(=O)N(C)[C@@H]2CN(C(=O)c3ccc(C#N)cc3)C[C@H]2c2ccc(Cl)c(Cl)c2)cn1` (racemic) [Example 76, rac-2-Methoxy-pyrimidine-5-carboxylic acid [(3S,4R)-1-(4-cyano-benzoyl)-4-(3,4-dichloro-phenyl)-pyrrolidin-3-yl]-methyl-amide]: the Ki was 96 nM.

With `Cc1ccc(C(=O)N(C)[C@@H]2CN(C(=O)c3ccc(C#N)cc3)C[C@H]2c2ccc(Cl)c(Cl)c2)cn1` (racemic) [Example 77, rac-N-[(3S,4R)-1-(4-Cyano-benzoyl)-4-(3,4-dichloro-phenyl)-pyrrolidin-3-yl]-6,N-dimethyl-nicotinamide], the Ki worked out at 28.8 nM.

With `CN(C(=O)c1ccc(Cl)nc1)[C@@H]1CN(C(=O)c2ccc(C#N)cc2)C[C@H]1c1ccc(Cl)c(Cl)c1` (racemic) [Example 78, rac-6-Chloro-N-[(3S,4R)-1-(4-cyano-benzoyl)-4-(3,4-dichloro-phenyl)-pyrrolidin-3-yl]-N-methyl-nicotinamide], the Ki was 7.8 nM.

On to `CN(C(=O)c1ccc(C#N)nc1)[C@@H]1CN(C(=O)c2ccc(C#N)cc2)C[C@H]1c1ccc(Cl)c(Cl)c1` (racemic) [Example 80, rac-6-Cyano-N-[(3S,4R)-1-(4-cyano-benzoyl)-4-(3,4-dichloro-phenyl)-pyrrolidin-3-yl]-N-methyl-nicotinamide], for which the inhibitory constant (Ki) came out at 40 nM.

Take `CN(C(=O)c1ccc(C(F)(F)F)nc1)[C@@H]1CN(C(=O)c2ccc(C#N)cc2)C[C@H]1c1ccc(Cl)c(Cl)c1` (racemic) [Example 81, rac-N-[(3S,4R)-1-(4-Cyano-benzoyl)-4-(3,4-dichloro-phenyl)-pyrrolidin-3-yl]-N-methyl-6-trifluoromethyl-nicotinamide]: the inhibition constant Ki amounted to 5.8 nM.

For `CN(C(=O)c1ccc(OCC(F)(F)F)nc1)[C@@H]1CN(C(=O)c2ccc(C#N)cc2)C[C@H]1c1ccc(Cl)c(Cl)c1` (racemic) [Example 82, rac-N-[(3S,4R)-1-(4-Cyano-benzoyl)-4-(3,4-dichloro-phenyl)-pyrrolidin-3-yl]-N-methyl-6-(2,2,2-trifluoro-ethoxy)-nicotinamide], the Ki is 11.7 nM.

For `Cc1cncc(C(=O)N(C)[C@@H]2CN(C(=O)c3ccc(C#N)cc3)C[C@H]2c2ccc(Cl)c(Cl)c2)c1` (racemic) [Example 83, rac-N-[(3S,4R)-1-(4-Cyano-benzoyl)-4-(3,4-dichloro-phenyl)-pyrrolidin-3-yl]-5,N-dimethyl-nicotinamide], the inhibition constant (Ki) came out at 97.1 nM.

For the compound `CN(C(=O)c1ccc(F)nc1)[C@@H]1CN(C(=O)c2ccc(C#N)cc2)C[C@H]1c1ccc(Cl)c(Cl)c1` (racemic) [Example 85, rac-N-[(3S,4R)-1-(4-Cyano-benzoyl)-4-(3,4-dichloro-phenyl)-pyrrolidin-3-yl]-6-fluoro-N-methyl-nicotinamide], the inhibition constant (Ki) was 82.1 nM.

Consider `COc1ccc(C(=O)N(C)[C@@H]2CN(C(=O)c3ccc(C#N)cc3)C[C@H]2c2ccc(Cl)c(Cl)c2)cn1` (racemic) [Example 86, rac-N-[(3S,4R)-1-(4-Cyano-benzoyl)-4-(3,4-dichloro-phenyl)-pyrrolidin-3-yl]-6-methoxy-N-methyl-nicotinamide], for which the inhibitory constant (Ki) was determined as 17.8 nM.

In the case of `COc1ccc(C(=O)N(C)[C@H]2CN(C(=O)C3CCN(C(=O)C4(C)CC4)CC3)C[C@@H]2c2ccc(Cl)cc2)cc1C(F)(F)F` (racemic) [Example 87, N-{(3RS,4SR)-4-(4-Chloro-phenyl)-1-[1-(1-methyl-cyclopropanecarbonyl)-piperidine-4-carbonyl]-pyrrolidin-3-yl}-4-methoxy-N-methyl-3-trifluoromethyl-benzamide], the inhibitory constant (Ki) came to 0.8 nM.

In the case of `COc1ccc(C(=O)N(C)[C@H]2CN(C(=O)c3ccc(F)cc3)C[C@@H]2c2ccc(Cl)cc2)cc1C(F)(F)F` (racemic) [Example 88, N-[(3RS,4SR)-4-(4-Chloro-phenyl)-1-(4-fluoro-benzoyl)-pyrrolidin-3-yl]-4-methoxy-N-methyl-3-trifluoromethyl-benzamide], the Ki is 17.8 nM.

As to `COc1ccc(C(=O)N(C)[C@H]2CN(C(=O)c3ccc(F)cc3C)C[C@@H]2c2ccc(Cl)cc2)cc1C(F)(F)F` (racemic) [Example 89, N-[(3RS,4SR)-4-(4-Chloro-phenyl)-1-(4-fluoro-2-methyl-benzoyl)-pyrrolidin-3-yl]-4-methoxy-N-methyl-3-trifluoromethyl-benzamide], the Ki came out at 23.3 nM.

As for `COc1ccc(C(=O)N(C)[C@H]2CN(C(=O)c3ccc(C#N)nc3)C[C@@H]2c2ccc(Cl)cc2)cc1C(F)(F)F` (racemic) [Example 90, N-[(3RS,4SR)-4-(4-Chloro-phenyl)-1-(6-cyano-pyridine-3-carbonyl)-pyrrolidin-3-yl]-4-methoxy-N-methyl-3-trifluoromethyl-benzamide], the inhibition constant (Ki) is 11.7 nM.

With `COc1ccc(C(=O)N(C)[C@H]2CN(C(=O)c3ccc(C#N)cc3)C[C@@H]2c2ccc(Cl)cc2)cc1C(F)(F)F` (racemic) [Example 92, N-[(3RS,4SR)-4-(4-Chloro-phenyl)-1-(4-cyano-benzoyl)-pyrrolidin-3-yl]-4-methoxy-N-methyl-3-trifluoromethyl-benzamide], the Ki was 13.9 nM.

`COc1ccc(C(=O)N(C)[C@H]2CN(C(=O)C3CCN(C(=O)OC(C)(C)C)CC3)C[C@@H]2c2ccc(Cl)cc2)cc1C(F)(F)F` (racemic) [Example 95, 4-{(3SR,4RS)-3-(4-Chloro-phenyl)-4-[(4-methoxy-3-trifluoromethyl-benzoyl)-methyl-amino]-pyrrolidine-1-carbonyl}-piperidine-1-carboxylic acid tert-butyl ester]: the Ki was 2.2 nM.

Consider `COc1ccc(C(=O)N(C)[C@H]2CN(C(=O)C3CCN(C(=O)C4(C)CC4)CC3)C[C@@H]2c2ccc(Cl)c(Cl)c2)cc1C(F)(F)F` (racemic) [Example 96, N-{(3RS,4SR)-4-(3,4-Dichloro-phenyl)-1-[1-(1-methyl-cyclopropanecarbonyl)-piperidine-4-carbonyl]-pyrrolidin-3-yl}-4-methoxy-N-methyl-3-trifluoromethyl-benzamide], for which the Ki worked out at 0.8 nM.

Turning to `CN(C(=O)c1ccc(Cl)c(C(F)(F)F)c1)[C@H]1CN(C(=O)C2CCN(C(=O)C3(C)CC3)CC2)C[C@@H]1c1ccc(Cl)c(Cl)c1` (racemic) [Example 97, 4-Chloro-N-{(3RS,4SR)-4-(3,4-dichloro-phenyl)-1-[1-(1-methyl-cyclopropanecarbonyl)-piperidine-4-carbonyl]-pyrrolidin-3-yl}-N-methyl-3-trifluoromethyl-benzamide], the Ki worked out at 0.7 nM.
